Experiments:
[1] = (§1) The drug is tested on Z-003 corresponding to pig gut metagenome with ENA study accession number: PRJEB37062 and ENA sample accession number: ERS12561803 for biotransformation under anaerobic condition. The drug concentrations were measured over 9 timepoints collected between 0 and 24 hours of incubation by liquid-chromatography-coupled mass spectrometry (LC–MS); details: 2 µM
[2] = human gut metagenome, 24 h, 2 µM
[3] = as §1, with “WLS-370” for “Z-003”, “human” for “pig”, “ERS12561793” for “ERS12561803”; details: 2 µM
[4] = as §1, with “Z-027” for “Z-003”, “to” for “to pig gut”, “ERS12561826” for “ERS12561803”; details: 2 µM
[5] = human gut metagenome, 24 h, 2 µM; remark: listed apart in the source
[6] = human gut metagenome, 24 h, 2 µM; remark: listed apart in the source
[7] = as §1, with “Z-001” for “Z-003”, “mouse” for “pig”, “ERS12561801” for “ERS12561803”; details: 2 µM
[8] = as §1, with “Z-009” for “Z-003”, “ERS12561809” for “ERS12561803”; details: 2 µM
[9] = human gut metagenome, 24 h, 2 µM; remark: listed apart in the source
[10] = human gut metagenome, 24 h, 2 µM; remark: listed apart in the source
[11] = as §1, with “Z-016” for “Z-003”, “mouse” for “pig”, “ERS12561815” for “ERS12561803”; details: 2 µM
[12] = human gut metagenome, 24 h, 2 µM; remark: listed apart in the source
[13] = human gut metagenome, 24 h, 2 µM; remark: listed apart in the source
[14] = human gut metagenome, 24 h, 2 µM; remark: listed apart in the source
[15] = as §1, with “WLS-086” for “Z-003”, “human” for “pig”, “ERS12561752” for “ERS12561803”; details: 2 µM
[16] = as §1, with “Z-030” for “Z-003”, “mouse” for “pig”, “ERS12561829” for “ERS12561803”; details: 2 µM
[17] = as §1, with “Z-023” for “Z-003”, “to” for “to pig gut”, “ERS12561822” for “ERS12561803”; details: 2 µM
[18] = as §1, with “Z-004” for “Z-003”, “to” for “to pig gut”, “ERS12561804” for “ERS12561803”; details: 2 µM
[19] = human gut metagenome, 24 h, 2 µM; remark: listed apart in the source
[20] = as §1, with “Z-014” for “Z-003”, “rat” for “pig”, “ERS12561814” for “ERS12561803”; details: 2 µM
Note: call rule not given here.

Compound | Bacterial Biotransformation [1] | Bacterial Biotransformation [2] | Bacterial Biotransformation [3] | Bacterial Biotransformation [4] | Bacterial Biotransformation [5] | Bacterial Biotransformation [6] | Bacterial Biotransformation [7] | Bacterial Biotransformation [8] | Bacterial Biotransformation [9] | Bacterial Biotransformation [10] | Bacterial Biotransformation [11] | Bacterial Biotransformation [12] | Bacterial Biotransformation [13] | Bacterial Biotransformation [14] | Bacterial Biotransformation [15] | Bacterial Biotransformation [16] | Bacterial Biotransformation [17] | Bacterial Biotransformation [18] | Bacterial Biotransformation [19] | Bacterial Biotransformation [20]
CCc1nn(CCCN2CCN(c3cccc(Cl)c3)CC2)c(=O)n1CCOc1ccccc1 [NEFAZODONE] | Compound NOT metabolized | Compound metabolized | Compound NOT metabolized | Compound NOT metabolized | Compound metabolized | Compound metabolized | Compound NOT metabolized | Compound NOT metabolized | Compound NOT metabolized | Compound metabolized | Compound NOT metabolized | Compound metabolized | Compound NOT metabolized | Compound NOT metabolized | Compound metabolized | Compound NOT metabolized | Compound NOT metabolized | Compound NOT metabolized | Compound metabolized | Compound NOT metabolized
Cc1ccccc1N1C(=O)c2cc(S(N)(=O)=O)c(Cl)cc2NC1C (stereo not given) [METOLAZONE] | Compound NOT metabolized | Compound metabolized | Compound NOT metabolized | Compound NOT metabolized | Compound metabolized | Compound NOT metabolized | Compound NOT metabolized | Compound NOT metabolized | Compound metabolized | Compound metabolized | Compound NOT metabolized | Compound metabolized | Compound NOT metabolized | Compound metabolized | Compound metabolized | Compound NOT metabolized | Compound NOT metabolized | Compound NOT metabolized | Compound metabolized | Compound NOT metabolized
CN1CCc2c(c3ccccc3n2Cc2ccccc2)C1.CN1CCc2c(c3ccccc3n2Cc2ccccc2)C1.O=S(=O)(O)c1cccc2c(S(=O)(=O)O)cccc12 | Compound NOT metabolized | Compound NOT metabolized | Compound metabolized | Compound NOT metabolized | Compound metabolized | Compound metabolized | Compound NOT metabolized | Compound NOT metabolized | Compound NOT metabolized | Compound NOT metabolized | Compound NOT metabolized | Compound NOT metabolized | Compound NOT metabolized | Compound NOT metabolized | Compound NOT metabolized | Compound NOT metabolized | Compound NOT metabolized | Compound NOT metabolized | Compound NOT metabolized | Compound NOT metabolized
C[C@@H](CO)NC(=O)[C@@H]1C=C2c3cccc4[nH]cc(c34)C[C@H]2N(C)C1.O=C(O)/C=C\C(=O)O [ERGONOVINE MALEATE] | Compound NOT metabolized | Compound metabolized | Compound metabolized | Compound NOT metabolized | Compound metabolized | Compound metabolized | Compound NOT metabolized | Compound NOT metabolized | Compound metabolized | Compound NOT metabolized | Compound NOT metabolized | Compound metabolized | Compound NOT metabolized | Compound metabolized | Compound metabolized | Compound NOT metabolized | Compound NOT metabolized | Compound NOT metabolized | Compound metabolized | Compound NOT metabolized
CN(C)C(=O)C(CCN1CCC(O)(c2ccc(Cl)cc2)CC1)(c1ccccc1)c1ccccc1 [LOPERAMIDE] | Compound metabolized | Compound metabolized | Compound metabolized | Compound metabolized | Compound metabolized | Compound metabolized | Compound metabolized | Compound metabolized | Compound metabolized | Compound metabolized | Compound metabolized | Compound metabolized | Compound metabolized | Compound metabolized | Compound metabolized | Compound NOT metabolized | Compound metabolized | Compound metabolized | Compound metabolized | Compound metabolized
O=c1[nH]c2ccccc2n1C1CCN(CCCC(c2ccc(F)cc2)c2ccc(F)cc2)CC1 [PIMOZIDE] | Compound metabolized | Compound metabolized | Compound metabolized | Compound NOT metabolized | Compound metabolized | Compound metabolized | Compound metabolized | Compound metabolized | Compound metabolized | Compound metabolized | Compound metabolized | Compound metabolized | Compound NOT metabolized | Compound NOT metabolized | Compound metabolized | Compound NOT metabolized | Compound NOT metabolized | Compound NOT metabolized | Compound NOT metabolized | Compound NOT metabolized
CC(C)N(CCC(C(N)=O)(c1ccccc1)c1ccccn1)C(C)C.O=P(O)(O)O (stereo not given) [DISOPYRAMIDE PHOSPHATE] | Compound NOT metabolized | Compound NOT metabolized | Compound NOT metabolized | Compound NOT metabolized | Compound metabolized | Compound metabolized | Compound NOT metabolized | Compound NOT metabolized | Compound NOT metabolized | Compound metabolized | Compound NOT metabolized | Compound metabolized | Compound NOT metabolized | Compound NOT metabolized | Compound metabolized | Compound NOT metabolized | Compound NOT metabolized | Compound NOT metabolized | Compound NOT metabolized | Compound NOT metabolized
CN(C)CCC=C1c2ccccc2C=Cc2ccccc21 [CYCLOBENZAPRINE] | Compound metabolized | Compound metabolized | Compound metabolized | Compound NOT metabolized | Compound metabolized | Compound metabolized | Compound metabolized | Compound metabolized | Compound metabolized | Compound metabolized | Compound NOT metabolized | Compound metabolized | Compound NOT metabolized | Compound metabolized | Compound metabolized | Compound NOT metabolized | Compound metabolized | Compound metabolized | Compound metabolized | Compound NOT metabolized

From ChEMBL document CHEMBL5724914, “Linking interpersonal differences in gut microbiota composition and drug biotransformation activity” (2024)
